Source: patent EP4741389A1, “KAT6 INHIBITOR” (Shanghai Qilu Pharmaceutical Research and Development …, priority 2023, dated 2025)

Experiments:
KAT6B = target: T1, KAT6B (Homo sapiens, UniProt Q8WYB5); experiment: KATs acetyltransferase enzyme activity assay (TR-FRET), KAT6B; format: biochemical; conditions: Biotin-H3 (1-21) and AcCOA, 90 minutes at room temperature
T1 construct: purchased Active Motif 81224
Protocol: (§1) I. KATs acetyltransferase enzyme activity assay
(§2) • 1. The inhibitory effect of compounds on the acetyltransferase activity of KATs was evaluated using the Time-Resolved Fluorescence Resonance Energy Transfer (TR-FRET) assay. The assay was conducted in 384-well plates using Tris-HCl buffer. • 2. Compounds were diluted in DMSO and transferred to 384-well plates. Enzyme solutions (KAT6: active motif (kit), 81223; KAT6B: active motif, 81224; KAT5: SignalChem, K314-380G; KAT7: ICE, S2210F-H21HF; KAT8: Active motif, 81225) were added and the mixture was incubated at room temperature for 15 minutes. • 3. Subsequently, 2.5 µL of a mixture containing KAT6A/KAT6B: Biotin-H3 (1-21, Genscript, C6829GL060) or KAT5/7/8: Bio-H4 (1-25, Genscript, C736BGL100) AcCOA (Sigma, A2056) was added, and the reaction proceeded at room temperature for 90 minutes. • 4. After the reaction, a detection mixture containing Europium-anti-acetyl-Histone H4 Lysine (H4Kac pan) Antibody (Perkin Elmer, TRF0412) and LANCE Ultra ULight™-Streptavidin in LANCE™ Detection buffer (10x) (Perkin Elmer, CR97-100) was added, followed by incubation at room temperature for 60 minutes. • 5. HTRF signals were measured using a BMG PHERAstar FSX (Ratio: 665nm/620nm). IC50 values were calculated by nonlinear regression using a four-parameter logistic equation in GraphPad Prism 8 software.

KAT6A = target: T2, KAT6A (Homo sapiens, UniProt Q92794); experiment: KATs acetyltransferase enzyme activity assay (TR-FRET), KAT6A; format: biochemical; conditions: Biotin-H3 (1-21) and AcCOA, 90 minutes at room temperature
T2 construct: purchased Active Motif 81223
Protocol: as §1
as §2, with “Enzyme solutions (KAT6: active motif (kit), 81223; KAT6B: active motif, 81224; KAT5: SignalChem, K314-380G; KAT7: ICE, S2210F-H21HF; KAT8: Active motif, 81225) were added and the mixture was incubated at room temperature for 15 minutes. • 3.” left out, “HTRF signals were measured using a BMG PHERAstar FSX (Ratio: 665nm/620nm).” left out

[1] = system: ZR-75-1 H3K23 Acetylation; experiment: Histone H3 acetylation assay (H3K23 acetylation in ZR-75-1 cells); format: cell-based; conditions: Homo sapiens, 72 hours incubation, Odyssey CLx fluorescence, read-out: ZR-75-1 H3K23 Acetylation Inhibition IC50
Protocol: III. Histone H3 acetylation assay
• 1. ZR-75-1 cells were seeded at 5000 cells/40 µL per well in 384-well plates and cultured overnight in an incubator at 37°C & 5% CO2. • 2. 40 nL of serially diluted compounds were added to the 384-well plates, followed by further incubation for 72 hours. • 3. The supernatant was discarded, and 8 w/v% paraformaldehyde (final concentration was 4 w/v%) was added directly to the wells to fix the cells at room temperature. • 4. After washing twice with PBS, a permeabilization agent (40 µL of methanol) was added and incubated for 10 minutes to permeabilize the cell membranes. • 5. After washing twice with PBS, a blocking buffer was added and incubated at room temperature for 1 hour for blocking. • 6. The blocking buffer was discarded, and 20 µL of primary antibodies (recombinant Anti-Histone H3 (acetyl K23) antibody and Anti-Histone H4 antibody) diluted in blocking buffer (1:1000 by volume dilution) were added, followed by incubation at 4°C overnight. • 7. After washing three times with PBST (0.05 vol% Tween-20 in PBS), 20 µL of fluorescent secondary antibodies (IRDye 680RD Goat anti-MOUSE, Licor, 926-68070; IRDye 800CW Goat anti-Rabbit, Licor, 926-32211) diluted in blocking buffer (1:2000 by volume dilution) were added, followed by incubation at room temperature, protected from light, for 1 hour. Then, the plates were washed three times with PBST. • 8. Scanning was performed using an Odyssey CLx, and the fluorescence signal value for each well was quantified. IC50 values were calculated by nonlinear regression using a four-parameter logistic equation in GraphPad Prism 8 software.

ZR-75-1 cells = experiment: ZR-75-1 cell proliferation assay (CellTiter-Glo); format: cell-based; conditions: Homo sapiens, ZR-75-1, 240 h, total culture period of 10 days, read-out: ZR-75-1 Proliferation Inhibition IC50
Protocol: II. ZR-75-1 cell proliferation assay
• 1. ZR-75-1 cells were seeded in 96-well plates and cultured overnight in an incubator at 37°C & 5% CO2. • 2. Compounds were diluted using culture medium and added to the 96-well plates. The plates were placed back into the incubator for continued culture. Every 5 days, the cells were trypsinized, counted, and re-seeded. After the cells had fully adhered, compounds were added again for incubation, for a total culture period of 10 days. • 3. After the culture period, 60 µL of CellTiter-Glo reagent (Promega, G7573) was added to each well. The plates were protected from light and shaken for 2 minutes to lyse the cells, followed by further incubation at room temperature, protected from light, for 30 minutes. • 4. Luminescence signals were read using a BMG PHERAstar FSX. IC50 values were calculated by nonlinear regression using a four-parameter logistic equation in GraphPad Prism 8 software.

T1 sequence (Q8WYB5 whole entry): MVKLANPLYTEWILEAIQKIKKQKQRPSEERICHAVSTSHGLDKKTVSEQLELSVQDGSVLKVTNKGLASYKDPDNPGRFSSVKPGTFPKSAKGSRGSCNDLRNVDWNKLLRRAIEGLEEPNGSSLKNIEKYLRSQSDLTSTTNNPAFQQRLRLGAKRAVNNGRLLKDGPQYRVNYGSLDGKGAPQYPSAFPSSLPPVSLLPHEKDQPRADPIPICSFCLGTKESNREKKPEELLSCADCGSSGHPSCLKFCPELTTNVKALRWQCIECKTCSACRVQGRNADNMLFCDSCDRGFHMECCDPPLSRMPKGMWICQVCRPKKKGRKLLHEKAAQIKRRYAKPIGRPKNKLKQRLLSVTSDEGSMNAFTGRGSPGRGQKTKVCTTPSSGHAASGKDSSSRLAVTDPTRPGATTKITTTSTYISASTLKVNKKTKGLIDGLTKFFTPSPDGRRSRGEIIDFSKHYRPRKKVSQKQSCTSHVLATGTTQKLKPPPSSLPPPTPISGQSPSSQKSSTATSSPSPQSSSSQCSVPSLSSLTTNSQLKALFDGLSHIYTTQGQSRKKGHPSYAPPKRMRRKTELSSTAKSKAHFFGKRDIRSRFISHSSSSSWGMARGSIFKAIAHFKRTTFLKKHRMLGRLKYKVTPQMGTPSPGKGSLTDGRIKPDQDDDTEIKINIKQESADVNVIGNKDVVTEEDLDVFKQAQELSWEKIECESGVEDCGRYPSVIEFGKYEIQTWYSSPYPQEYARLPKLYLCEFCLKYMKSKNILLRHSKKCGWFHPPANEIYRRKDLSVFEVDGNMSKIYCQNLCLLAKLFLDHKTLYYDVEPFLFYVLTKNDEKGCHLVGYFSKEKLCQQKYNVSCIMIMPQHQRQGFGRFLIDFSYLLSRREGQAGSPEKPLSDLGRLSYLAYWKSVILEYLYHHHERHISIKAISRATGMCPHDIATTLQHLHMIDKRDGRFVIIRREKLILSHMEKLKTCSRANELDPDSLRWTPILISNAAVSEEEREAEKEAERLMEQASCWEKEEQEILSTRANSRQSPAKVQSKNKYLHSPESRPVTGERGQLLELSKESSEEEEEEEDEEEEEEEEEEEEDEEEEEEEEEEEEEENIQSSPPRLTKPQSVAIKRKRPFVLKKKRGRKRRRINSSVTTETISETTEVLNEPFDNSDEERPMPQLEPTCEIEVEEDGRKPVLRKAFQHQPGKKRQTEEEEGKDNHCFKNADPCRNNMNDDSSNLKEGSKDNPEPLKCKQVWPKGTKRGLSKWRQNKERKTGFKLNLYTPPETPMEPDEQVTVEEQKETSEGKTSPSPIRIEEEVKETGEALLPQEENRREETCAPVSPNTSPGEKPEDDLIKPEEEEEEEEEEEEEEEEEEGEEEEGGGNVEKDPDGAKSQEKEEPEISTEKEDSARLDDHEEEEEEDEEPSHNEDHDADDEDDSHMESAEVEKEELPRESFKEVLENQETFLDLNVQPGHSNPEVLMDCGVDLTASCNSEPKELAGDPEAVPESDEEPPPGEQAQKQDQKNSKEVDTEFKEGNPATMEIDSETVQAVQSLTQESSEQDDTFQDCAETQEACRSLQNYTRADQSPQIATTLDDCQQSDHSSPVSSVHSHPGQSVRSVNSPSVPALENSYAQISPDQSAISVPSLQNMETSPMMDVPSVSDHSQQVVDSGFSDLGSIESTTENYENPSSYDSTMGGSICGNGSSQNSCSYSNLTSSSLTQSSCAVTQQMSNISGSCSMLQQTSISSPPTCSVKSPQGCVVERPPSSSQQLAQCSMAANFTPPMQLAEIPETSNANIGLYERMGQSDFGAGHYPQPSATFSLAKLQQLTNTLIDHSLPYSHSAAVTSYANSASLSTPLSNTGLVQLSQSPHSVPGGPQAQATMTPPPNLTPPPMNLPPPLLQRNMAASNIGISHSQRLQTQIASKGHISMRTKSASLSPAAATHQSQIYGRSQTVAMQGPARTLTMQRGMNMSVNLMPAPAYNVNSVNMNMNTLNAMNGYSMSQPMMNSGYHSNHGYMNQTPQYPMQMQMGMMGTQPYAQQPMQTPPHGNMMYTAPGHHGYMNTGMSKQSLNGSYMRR
T2 sequence (Q92794 488-778 limits assumed): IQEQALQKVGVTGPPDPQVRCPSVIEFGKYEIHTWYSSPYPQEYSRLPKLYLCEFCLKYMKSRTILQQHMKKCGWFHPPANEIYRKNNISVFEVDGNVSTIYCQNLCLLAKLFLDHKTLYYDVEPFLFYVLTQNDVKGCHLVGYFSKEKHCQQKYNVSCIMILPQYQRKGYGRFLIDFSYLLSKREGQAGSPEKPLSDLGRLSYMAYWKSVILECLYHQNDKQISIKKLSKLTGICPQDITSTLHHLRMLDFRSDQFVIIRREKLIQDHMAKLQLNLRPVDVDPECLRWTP

| IC50 (KAT6B) | IC50 (KAT6A) | IC50 [1] | Structure (SMILES) | IC50 (ZR-75-1 cells) |
| --- | --- | --- | --- | --- |
| 15 nM | 2 nM |  | COc1cc2c(cc1S(=O)(=O)Nc1noc3cc(Cn4cccn4)cc(OC)c13)C1(CC1)CO2 [Compound 4, N-(6-((1H-Pyrazol-1-yl)methyl)-4-methoxybenzo[d]isoxazol-3-yl)-6-methoxy-2H-spiro[benzofuran-3,1'-cyclopropane]-5-sulfonamide] |  |
| 9.5 nM | 1.6 nM | 2.1 nM | COc1cc2c(cc1S(=O)(=O)Nc1noc3cc(Cn4cccn4)cc(OC)c13)COCCO2 [Compound 9, N-(6-((1H-Pyrazol-1-yl)methyl)-4-methoxybenzo[d]isoxazol-3-yl)-8-methoxy-2,3-dihyd ro-5H-benzo[e][1,4]dioxepine-7-sulfonamide] |  |
| 46.8 nM | 2.5 nM | 12.7 nM | COc1ccc2c(c1S(=O)(=O)Nc1noc3cc(Cn4cccn4)cc(OC)c13)OCC(F)(F)CO2 [Compound 11, N-(6-((1H-Pyrazol-1-yl)methyl)-4-methoxybenzo[d]isoxazol-3-yl)-3,3-difluoro-7-methoxy-3,4-dihydro-2H-benzo[b] [1,4]dioxepine-6-sulfonamide] |  |
|  |  |  | COc1ccc2c(c1S(=O)(=O)Nc1noc3cc(Cn4cccn4)c(C)cc13)OCCCO2 [Compound 17, N-(6-((1H-Pyrazol-1-yl)methyl)-5-methylbenzo[d]isoxazol-3-yl)-7-methoxy-3,4-dihydro-2H-benzo [b] [1,4] dioxepine-6-sulfonamide] | 3.7 nM |
|  |  |  | CCOc1cc2c(NS(=O)(=O)c3c(OC)ccc4c3OCCCO4)noc2cc1Cn1cccn1 [Compound 18, N-(6-((1H-Pyrazol-1-yl)methyl)-5-ethoxybenzo[d]isoxazol-3-yl)-7-methoxy-3,4-dihydro-2H-benzo [b] [1,4] dioxepine-6-sulfonamide] | 22.1 nM |
| 7.3 nM | 1.5 nM |  | COc1ccc2c(c1S(=O)(=O)Nc1noc3cc(Cn4cccn4)c4c(c13)OCCC4)OCCCO2 [Compound 22, N-(5-((1H-Pyrazol-1-yl)methyl)-3,4-dihydro-2H-chromeno[8,7-d]isoxazol-9-yl)-7-methoxy-3,4-dihydro-2H-benzo[b][1,4]dioxepine-6-sulfonamide] | 0.5 nM |
| 34.4 nM | 3.1 nM |  | COc1ccc2c(c1S(=O)(=O)Nc1noc3cc(Cn4cccn4)c(C)c(OC)c13)OCC1CC21 (stereo not shown) [Compound 24, N-(6-((1H-Pyrazol-1-yl)methyl)-4-methoxy-5-methylbenzo[d]isoxazol-3-yl)-5-methoxy-1,1a,2,7b-tetrahydrocyclopropa[c]chromene-4-sulfonamide] |  |
| 70.3 nM | 5.9 nM |  | COc1ccc2c(c1S(=O)(=O)Nc1noc3cc(Cn4cccn4)c(C)c(OC)c13)OCC21CC1 [Compound 25, N-(6-((1H-Pyrazol-1-yl)methyl)-4-methoxy-5-methylbenzo[d]isoxazol-3-yl)-6-methoxy-2H-spiro[benzofuran-3,1'-cyclopropane]-7-sulfonamide] |  |
| 80.3 nM | 4.7 nM |  | CCc1c(Cn2cccn2)cc2onc(NS(=O)(=O)c3c(OC)ccc4c3OCCCO4)c2c1OC [Compound 26, N-(6-((1H-Pyrazol-1-yl)methyl)-5-ethyl-4-methoxybenzo[d]isoxazol-3-yl)-7-methoxy-3,4-dihydro-2H-benzo[b][1,4]dioxepine-6-sulfonamide] |  |
| 1.6 nM | 1.1 nM |  | [2H]C([2H])(c1cc(OC)c2c(NS(=O)(=O)c3c(OC)ccc4c3OC[C@@H]3C[C@H]43)noc2c1)n1cccn1 [Compound 42, (1aR,7bS)-N-(6-((1H-Pyrazol-1-yl)methyl-d2)-4-methoxybenzo[d]isoxazol-3-yl)-5-methoxy-1,1a,2,7b-tetrahydrocyclopropa[c]chromene-4-sulfonamide] | 0.1 nM |
| 28.9 nM | 3.7 nM |  | [2H]C([2H])(c1cc(OC)c2c(NS(=O)(=O)c3c(OC)ccc4c3OCCCO4)noc2c1)n1cccn1 [Compound 43, N-(6-((1H-Pyrazol-1-yl)methyl-d2)-4-methoxybenzo[d]isoxazol-3-yl)-7-methoxy-3,4-di hydro-2H-benzo[b][1,4]dioxepine-6-sulfonamide] | 1 nM |
| 8.6 nM | 1.7 nM |  | COc1ccc2c(c1S(=O)(=O)Nc1noc3cc(Cn4cccn4)cc(OC)c13)OC1CC21 (stereo not shown) [Compound 44, 4-Methoxy-N-[4-methoxy-6-(pyrazol-1-ylmethyl)-1,2-benzoxazol-3-yl]-la,6b-dihydro-1 H-cyclopropa[b]benzofuran-3-sulfonamide] | 0.3 nM |
| 1.4 nM | 0.6 nM |  | [2H]C([2H])([2H])Oc1cc(Cn2cccn2)cc2onc(NS(=O)(=O)c3c(OC)ccc4c3OC[C@@H]3C[C@H]43)c12 [Compound 45, (1aR,7bS)-N-(6-((1H-Pyrazol-1-yl)methyl)-4-(methoxy-d3)benzo[d]isoxazol-3-yl)-5-met hoxy-1,1a,2,7b-tetrahydrocyclopropa[c]chromene-4-sulfonamide] | 0.04 nM |
| 33.8 nM | 5.4 nM |  | [2H]C([2H])([2H])Oc1cc(Cn2cccn2)cc2onc(NS(=O)(=O)c3c(OC)ccc4c3OCCCO4)c12 [Compound 46, 7-Methoxy-N-[6-(pyrazol-1-ylmethyl)-4-(trideuteriomethoxy)-1,2-benzoxazol-3-yl]-3,4-dihydro-2H-1,5-benzodioxepine-6-sulfonamide] | 1 nM |
| 1.5 nM | 0.8 nM | 3.4 nM | COc1ccc2c(c1S(=O)(=O)Nc1noc3cc(Oc4nccs4)cc(OC)c13)OC[C@@H]1C[C@H]21 [Compound 47, (1aR,7bS)-5-Methoxy-N-(4-methoxy-6-(thiazol-2-yloxy)benzo[d]isoxazol-3-yl)-1,1a,2,7 b-tetrahydrocyclopropa[c]chromene-4-sulfonamide] |  |
| 15.6 nM | 1.7 nM | 17.9 nM | COc1ccc2c(c1S(=O)(=O)Nc1noc3cc(Oc4ccccn4)cc(OC)c13)OC[C@@H]1C[C@H]21 [Compound 48, (1aR,7bS)-5-Methoxy-N-(4-methoxy-6-(pyridin-2-yloxy)benzo[d]isoxazol-3-yl)-1,1a,2,7 b-tetrahydrocyclopropa [c] chromene-4-sulfonamide] |  |
